Reference: paper PMC12755868, “Recombinant Production, SpeciesSpecific Activity at the TRPA1 Channel, and Significance of the N-Terminal Residue of ProTx-I Toxin from Thrixopelma Pruriens Tarantula Venom” (Acta Naturae, 2025)
“Also recorded” adds a separate entry of the source. Positions of bridges follow the written chain, without caps; N, C: chain ends. Residues, ends and D or L forms follow the SMILES beside them.

What was measured:
human TRPA1 [1] = biological target: T1, human TRPA1 (Homo sapiens, UniProt O75762); experiment: Inhibition of AITC-induced currents through human TRPA1 in X. laevis oocytes (electrophysiology); assay type: cell-based; conditions: for residual current (inhibited currents to): human TRPA1, toxin 10 μM, 100 μM AITC, normalized to response without ProTx-I (100%), n = 3–6 oocytes
T1 construct: expressed in transfected cells; host or cells: Xenopus laevis oocytes (mRNA injection)
Method: (§1) Currents through human and rat TRPA1 [21] were recorded in X. laevis oocytes expressing these channels. Oocyte isolation, mRNA injection, and experimental recordings have been described previously. All solutions were prepared on the day of the experiment using calcium-free ND-96 containing 96 mM NaCl, 2 mM KCl, 1 mM MgCl2 , and 10 mM HEPES at pH 7.4. Currents were stimulated by the application 100 μM AITC (Sigma-Aldrich). The solution was manually added to the perfusion chamber, and the currents were recorded using voltage ramps as reported in [22]. For each oocyte, we sequentially recorded three responses to AITC application, as well as the subsequent leakage current in the presence of a specific TRPA1 inhibitor: HC030031 (Sigma-Aldrich). The first response amplitude was used to normalize the data obtained on different oocytes. To induce the second response, AITC was applied together with ProTx-I or HC030031. The amplitude of this response was measured, normalized, averaged across different oocytes, and used to plot dose-response curves. Dose-response curves were approximated by the Hill equation: […]
where nH is the Hill coefficient.
Statistical data processing was performed using GraphPad Prism 9.0. To compare current amplitudes at specific toxin concentrations, either a two-tailed Student’s t-test or one-way ANOVA and Dunnett’s multiple comparison test was used. Dose-response curve parameters were compared using the F-test.
Fig. 4 Effect of ProTx-I variants on AITC-induced outward currents through TRPA1 in X. laevis oocytes. (A) Average normalized current traces for the human TRPA1 channel in the absence and presence of the selective antagonist HC030031 or ProTx-I. Data are presented as mean ± SEM (lines and shaded areas, respectively, n = 3–6 oocytes). Compound application periods are shown by solid black bars above the traces. […] (C) Dose-response curves for recombinant rProTx-I at human (hTRPA1) and rat (rTRPA1) ion channels. […] Data in B and C (mean ± SEM, n = 3–6 oocytes) are normalized to the response recorded without ProTx-I (100%)

rat TRPA1 = biological target: T2, rat TRPA1 (Rattus norvegicus, UniProt Q6RI86); experiment: Inhibition of AITC-induced currents through rat TRPA1 in X. laevis oocytes (electrophysiology); assay type: cell-based
T2 construct: expressed in transfected cells; host or cells: Xenopus laevis oocytes (mRNA injection)
Method: as §1
where nH is the Hill coefficient. […]
Fig. 4 Effect of ProTx-I variants on AITC-induced outward currents through TRPA1 in X. laevis oocytes. […] Data in B and C (mean ± SEM, n = 3–6 oocytes) are normalized to the response recorded without ProTx-I (100%)

[2] = tested on: voltage-gated sodium (NaV), potassium, and calcium channels; conditions: cited from earlier work
From the text: Due to its action at the NaV1.7, NaV1.8, and TRPA1 channels involved in pain perception and propagation, ProTx-I may be used as a model for the development of next-generation analgesics. ProTx-I consists of 35 amino acid residues, with three disulfide bonds forming an inhibitor cystine knot (ICK) motif, which challenges its heterologous production. An efficient Pro ... || Spider knottins include membrane-active toxins that affect the activation or inactivation of sodium (NaV), potassium, and calcium voltage-gated channels (so-called gating modifier toxins). The ProTx-I toxin (Protoxin-I or β/ω-theraphotoxin-Tp1a, 35 aa) is a membrane-active knottin of the Peruvian green velvet tarantula Thrixopelma pruriens. […] Among the ProTx-I targets, NaV1.7, NaV1.8, and TRPA1 channels are promising therapeutic targets for the treatment of pain and neu ...

human TRPA1 [3] = biological target: T1, human TRPA1; conditions: cited from earlier work
From the text: In the present study, we compared the functional activity of Met-ProTx-I and ProTx-I, with the latter being produced by hydrolysis of 6His-Met-ProTx-I, at the human TRPA1 channel expressed in X. laevis oocytes.

T1 sequence (O75762 whole entry): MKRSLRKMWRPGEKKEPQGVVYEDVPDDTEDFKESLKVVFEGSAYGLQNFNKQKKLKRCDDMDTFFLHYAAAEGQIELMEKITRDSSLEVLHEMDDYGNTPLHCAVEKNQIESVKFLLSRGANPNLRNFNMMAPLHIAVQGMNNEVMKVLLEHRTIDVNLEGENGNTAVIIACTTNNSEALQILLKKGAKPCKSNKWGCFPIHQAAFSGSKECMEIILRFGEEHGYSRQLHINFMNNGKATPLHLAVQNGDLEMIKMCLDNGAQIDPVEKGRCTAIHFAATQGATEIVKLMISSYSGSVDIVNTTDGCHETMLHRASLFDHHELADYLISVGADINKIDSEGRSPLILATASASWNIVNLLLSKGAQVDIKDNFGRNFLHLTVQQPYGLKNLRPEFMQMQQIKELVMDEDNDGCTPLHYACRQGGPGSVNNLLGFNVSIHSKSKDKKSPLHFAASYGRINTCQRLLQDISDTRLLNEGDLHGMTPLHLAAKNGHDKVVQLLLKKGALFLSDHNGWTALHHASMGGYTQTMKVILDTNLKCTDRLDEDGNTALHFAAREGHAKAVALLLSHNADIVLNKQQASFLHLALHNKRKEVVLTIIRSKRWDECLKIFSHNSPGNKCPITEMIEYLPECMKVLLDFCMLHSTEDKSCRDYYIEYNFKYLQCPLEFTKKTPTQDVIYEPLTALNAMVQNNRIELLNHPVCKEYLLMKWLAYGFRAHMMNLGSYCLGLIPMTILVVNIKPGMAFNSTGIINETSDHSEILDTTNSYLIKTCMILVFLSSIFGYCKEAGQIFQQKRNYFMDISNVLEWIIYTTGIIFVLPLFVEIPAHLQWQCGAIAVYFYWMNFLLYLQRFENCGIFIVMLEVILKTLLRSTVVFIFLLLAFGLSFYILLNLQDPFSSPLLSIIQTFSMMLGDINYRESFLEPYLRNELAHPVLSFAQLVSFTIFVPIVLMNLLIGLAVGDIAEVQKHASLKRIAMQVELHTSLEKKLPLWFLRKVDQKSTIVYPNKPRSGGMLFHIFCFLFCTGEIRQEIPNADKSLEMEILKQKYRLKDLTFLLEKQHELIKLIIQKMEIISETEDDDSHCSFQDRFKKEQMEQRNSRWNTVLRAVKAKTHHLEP
T2 sequence (Q6RI86 whole entry): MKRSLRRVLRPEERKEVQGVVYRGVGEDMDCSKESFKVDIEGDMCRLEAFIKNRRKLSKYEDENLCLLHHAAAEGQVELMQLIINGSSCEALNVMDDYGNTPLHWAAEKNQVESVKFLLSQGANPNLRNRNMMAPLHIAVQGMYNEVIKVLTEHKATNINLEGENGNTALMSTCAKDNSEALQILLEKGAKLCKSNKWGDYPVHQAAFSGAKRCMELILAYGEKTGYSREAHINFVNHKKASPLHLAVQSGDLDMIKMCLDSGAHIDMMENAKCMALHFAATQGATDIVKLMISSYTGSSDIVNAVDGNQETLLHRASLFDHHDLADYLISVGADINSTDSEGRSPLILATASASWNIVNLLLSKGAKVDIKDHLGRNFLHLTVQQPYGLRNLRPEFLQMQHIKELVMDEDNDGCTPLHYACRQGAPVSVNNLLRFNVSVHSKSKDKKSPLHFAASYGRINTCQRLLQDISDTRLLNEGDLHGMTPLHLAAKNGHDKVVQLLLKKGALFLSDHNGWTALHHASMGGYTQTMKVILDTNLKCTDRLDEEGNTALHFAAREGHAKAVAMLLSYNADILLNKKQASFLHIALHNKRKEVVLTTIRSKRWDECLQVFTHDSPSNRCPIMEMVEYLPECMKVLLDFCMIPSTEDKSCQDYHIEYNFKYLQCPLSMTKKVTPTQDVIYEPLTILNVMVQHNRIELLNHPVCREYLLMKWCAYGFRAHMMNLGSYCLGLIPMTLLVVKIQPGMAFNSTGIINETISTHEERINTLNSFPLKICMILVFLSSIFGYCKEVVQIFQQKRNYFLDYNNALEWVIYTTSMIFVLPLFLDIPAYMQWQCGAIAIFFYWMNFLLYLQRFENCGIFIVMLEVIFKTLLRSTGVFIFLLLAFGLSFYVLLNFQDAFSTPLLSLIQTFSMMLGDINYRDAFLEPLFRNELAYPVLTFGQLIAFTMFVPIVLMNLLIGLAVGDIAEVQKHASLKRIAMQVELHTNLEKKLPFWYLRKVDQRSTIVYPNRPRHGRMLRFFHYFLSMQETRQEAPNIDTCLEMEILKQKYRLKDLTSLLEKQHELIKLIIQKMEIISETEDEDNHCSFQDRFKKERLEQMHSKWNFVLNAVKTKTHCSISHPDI

Row | Compound | IC50 (human TRPA1 [1]) [nM] | residual current (inhibited currents to) (human TRPA1 [1]) | also measured
1 | CC(C)c1ccc(NC(=O)Cn2cnc3c2c(=O)n(C)c(=O)n3C)cc1 [HC030031] |  |  | inhibition of current through TRPA1 (in words) (human TRPA1 [1]): This effect was similar to that of 50 μM HC0300301
2 | CSCC[C@H](N)C(=O)N[C@@H](CCC(=O)O)C(=O)N[C@H]1CSSC[C@@H]2NC(=O)[C@@H]3CSSC[C@@H](C(=O)N[C@H](C(=O)N[C@@H](Cc4c[nH]c5ccccc45)C(=O)N[C@@H](CC(=O)O)C(=O)NCC(=O)N[C@H](C(=O)N[C@@H](Cc4ccccc4)C(=O)N[C@@H](CO)C(=O)O)[C@@H](C)O)C(C)C)NC(=O)[C@H](Cc4c[nH]c5ccccc45)NC(=O)CNC(=O)[C@H](Cc4c[nH]cn4)NC(=O)[C@H](CCCNC(=N)N)NC(=O)[C@H](CCCNC(=N)N)NC(=O)[C@H](CO)NC(=O)[C@H](CSSC[C@H](NC(=O)CNC(=O)CNC(=O)[C@H](CC(C)C)NC(=O)[C@H](Cc4c[nH]c5ccccc45)NC(=O)[C@H](Cc4ccc(O)cc4)NC(=O)[C@H](CCCNC(=N)N)NC1=O)C(=O)N[C@@H](CO)C(=O)N[C@@H](C)C(=O)NCC(=O)N[C@@H](CCC(N)=O)C(=O)N[C@@H]([C@@H](C)O)C(=O)N3)NC(=O)[C@H](C(C)C)NC(=O)[C@H](CC(C)C)NC(=O)[C@H](Cc1c[nH]cn1)NC(=O)[C@H](CCCCN)NC2=O [Met-ProTx-I] (H-MECRYWLGGCSAGQTCCKHLVCSRRHGWCVWDGTFS-OH; disulfide 3-17, 10-22, 16-29) | 8900 ± 7000 | ~ 60% | 
3 | CC(C)C[C@@H]1NC(=O)[C@H](Cc2c[nH]c3ccccc23)NC(=O)[C@H](Cc2ccc(O)cc2)NC(=O)[C@H](CCCNC(=N)N)NC(=O)[C@@H](NC(=O)[C@@H](N)CCC(=O)O)CSSC[C@@H]2NC(=O)[C@@H]3CSSC[C@@H](C(=O)N[C@H](C(=O)N[C@@H](Cc4c[nH]c5ccccc45)C(=O)N[C@@H](CC(=O)O)C(=O)NCC(=O)N[C@H](C(=O)N[C@@H](Cc4ccccc4)C(=O)N[C@@H](CO)C(=O)O)[C@@H](C)O)C(C)C)NC(=O)[C@H](Cc4c[nH]c5ccccc45)NC(=O)CNC(=O)[C@H](Cc4c[nH]cn4)NC(=O)[C@H](CCCNC(=N)N)NC(=O)[C@H](CCCNC(=N)N)NC(=O)[C@H](CO)NC(=O)[C@H](CSSC[C@H](NC(=O)CNC(=O)CNC1=O)C(=O)N[C@@H](CO)C(=O)N[C@@H](C)C(=O)NCC(=O)N[C@@H](CCC(N)=O)C(=O)N[C@@H]([C@@H](C)O)C(=O)N3)NC(=O)[C@H](C(C)C)NC(=O)[C@H](CC(C)C)NC(=O)[C@H](Cc1c[nH]cn1)NC(=O)[C@H](CCCCN)NC2=O [ProTx-I (Smartox)] | 410 ± 160 | ~ 5% | 
4 | CC(C)C[C@@H]1NC(=O)[C@H](Cc2c[nH]c3ccccc23)NC(=O)[C@H](Cc2ccc(O)cc2)NC(=O)[C@H](CCCNC(=N)N)NC(=O)[C@@H](NC(=O)[C@@H](N)CCC(=O)O)CSSC[C@@H]2NC(=O)[C@@H]3CSSC[C@@H](C(=O)N[C@H](C(=O)N[C@@H](Cc4c[nH]c5ccccc45)C(=O)N[C@@H](CC(=O)O)C(=O)NCC(=O)N[C@H](C(=O)N[C@@H](Cc4ccccc4)C(=O)N[C@@H](CO)C(=O)O)[C@@H](C)O)C(C)C)NC(=O)[C@H](Cc4c[nH]c5ccccc45)NC(=O)CNC(=O)[C@H](Cc4c[nH]cn4)NC(=O)[C@H](CCCNC(=N)N)NC(=O)[C@H](CCCNC(=N)N)NC(=O)[C@H](CO)NC(=O)[C@H](CSSC[C@H](NC(=O)CNC(=O)CNC1=O)C(=O)N[C@@H](CO)C(=O)N[C@@H](C)C(=O)NCC(=O)N[C@@H](CCC(N)=O)C(=O)N[C@@H]([C@@H](C)O)C(=O)N3)NC(=O)[C@H](C(C)C)NC(=O)[C@H](CC(C)C)NC(=O)[C@H](Cc1c[nH]cn1)NC(=O)[C@H](CCCCN)NC2=O [rProTx-I] | 840 ± 190 | ~ 5% | IC50 (rat TRPA1; rTRPA1 in X. laevis oocytes, outward currents induced by 100 μM AITC, calcium-free ND-96, pH 7.4, voltage ramps, Hill equation fit, n = 3–6 oocytes, rat vs human p = 0.006 (F-test)): 250 ± 70 nM
5 | ProTx-I |  |  | species selectivity, rat versus human TRPA1 (in words) (rat TRPA1; rat versus human TRPA1, difference in IC50 p = 0.006 (F-test)): different activities relative to human and rat TRPA1 channels; inhibition of voltage-gated channels (in words) [2]: inhibits voltage-gated sodium (NaV), potassium, and calcium channels; also recorded: effectively inhibits a number of voltage-gated channels; species selectivity, human versus mouse TRPA1 (in words) (human TRPA1 [3]): higher activity at the human channel
